From patent US20250205467A1, “SYSTEMS AND METHODS FOR THE TREATMENT OF CANCER USING ULTRASOUND” (Duke University, priority 2022, published 2025)

Tests used:
[1] = system: MM3MG-ESR1mut (Y537N, Y537S, D538G); assay: Response of MM3MG-ESR1mut cells to standard endocrine therapies; assay type: cell-based, mouse; conditions: data not shown
Method: Using DNA deep-sequencing technology, recent studies have identified several conserved mutations to the […] of ESR1 in a significant proportion (˜30-40%) of endocrine-resistant metastatic ER+ breast cancer patients. As no established models of endocrine-resistant ER+ breast cancer existed in immunocompetent mice, an ER+ endocrine resistant breast cancer cell line model was generated that would grow in immune competent syngeneic animals. MM3MG cells were artificially transformed with wild-type or mutated human ESR1 (Y537N, Y537S, D538G).
Therefore, the established murine breast cancer cell lines, MM3MG-ESR1mut (Y537N, Y537S, D538G), simulate patients' metastatic ER+ breast cancers, that are endocrine-resistant, having ESR1 gene mutation, and behave more aggressively.

[2] = system: pre-treated locally advanced or recurrent TNBC; assay: Single arm, prospective clinical trial of intratumoral pIL-12 (TAVO) monotherapy (OMS-140); assay type: in vivo, human; conditions: one patient previously unresponsive to anti-PD1; after 1 cycle of IL-12 treatment and 3 months of therapy
Method: The clinical safety of the therapy was tested in a single arm, prospective clinical trial of intratumoral pIL-12 (TAVO) monotherapy (OMS-140) in pre-treated locally advanced or recurrent TNBC.

4T1 tumors = conditions: combined with thermal ablative focused ultrasound; CD8 and CD4 T cell-dependent; cited from earlier work

Compound: CC/C(=C(\c1ccccc1)c1ccc(OCCN(C)C)cc1)c1ccccc1 [Tamoxifen]
- sensitivity of the cells to standard endocrine therapies [1]: completely resistant

Compound: nivolumab
- clinical response of lung metastases [2]: profound clinical response

Compound: Nc1ccn([C@@H]2O[C@H](CO)[C@@H](O)C2(F)F)c(=O)n1 [gemcitabine]
- tumor control and survival of mice (4T1 tumors): enhanced tumor control and improved survival
